Patent US4746659A, “Diastereomers of 10-alkyl-10-deazaminopterins and process for preparing the same” (priority 1985, dated 1988)
Converted amounts (≈) assume the structure as drawn. “Also recorded” adds a separate entry of the source. Where two headings read alike, the source gives them in different places.

What was measured:
Streptococcus faecium [1] = conditions: cited from earlier work
Streptococcus faecium [2] = test: Growth inhibition of Streptococcus faecium (ATCC 8043); format: cell-based; conditions: for Minimum Inhibitory Concentration50 for growth inhibition, S. faecium: S. faecium ATCC 8043; for Minimum Inhibitory Concentration50 for growth inhibition, S. faecium / IC50: folate concentration = 1 ng/mL; for potency against S. faecium, comparison: comparison in words; for IC50: Enterococcus faecium, ATCC8043, read-out: Minimum Inhibitory Concentration50 for growth inhibition, S. faecium, S. faecium ATCC 8043
[3] = target: T1, dihydrofolate reductase derived from L1210 (Mus musculus, UniProt P00375); test: Inhibition of dihydrofolate reductase derived from L1210 cells; format: biochemical; conditions: comparison in words
T1 construct: dihydrofolate reductase derived from L1210; endogenous in cells; host or cells: L1210 cells
T1 sequence (P00375 1-187): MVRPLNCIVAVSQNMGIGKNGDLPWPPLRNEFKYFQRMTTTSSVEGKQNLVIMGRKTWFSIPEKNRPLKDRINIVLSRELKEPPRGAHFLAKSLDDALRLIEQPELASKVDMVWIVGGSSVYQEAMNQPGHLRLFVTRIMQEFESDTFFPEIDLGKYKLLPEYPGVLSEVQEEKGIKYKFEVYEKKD

L1210 cells = test: Growth inhibition of L1210 cells; format: cell-based; conditions: for IC50: average of 3-6 runs, standard error less than 15%, read-out: growth inhibn (minimum inhibitory concentration50); for inhibition of growth for L1210 cells, comparison between isomers: comparison in words
[4] = target: T2, transport protein of L1210 (Mus musculus, UniProt P41438); test: Transport (influx, efflux) in L1210 cells; format: cell-based; conditions: average of 3-6 runs, standard error less than 15%
T2 sequence (P41438 1-512): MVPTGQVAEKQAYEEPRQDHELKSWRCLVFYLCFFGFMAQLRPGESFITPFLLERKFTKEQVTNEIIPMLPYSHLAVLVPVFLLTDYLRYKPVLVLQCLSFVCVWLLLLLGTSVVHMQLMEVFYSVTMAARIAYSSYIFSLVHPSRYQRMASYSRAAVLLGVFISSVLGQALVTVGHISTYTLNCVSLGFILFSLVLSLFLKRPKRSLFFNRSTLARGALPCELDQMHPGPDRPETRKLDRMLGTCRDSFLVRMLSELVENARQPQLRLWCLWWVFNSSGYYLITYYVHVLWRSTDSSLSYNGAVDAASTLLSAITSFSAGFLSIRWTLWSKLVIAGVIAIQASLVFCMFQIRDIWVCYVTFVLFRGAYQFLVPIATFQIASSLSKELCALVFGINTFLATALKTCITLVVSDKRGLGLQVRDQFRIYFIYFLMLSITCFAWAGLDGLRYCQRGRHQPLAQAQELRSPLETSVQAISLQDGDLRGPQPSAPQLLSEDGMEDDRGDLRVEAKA

[5] = tested on: leukemia, as well as other malignancies, including ascitic tumors; conditions: warm-blooded lower animals; cited from earlier work
L1210 leukemia = test: Antitumor activity against L1210 leukemia in mice; format: in vivo, BD (2) F1 female mice; conditions: sc every 2 days times 5; for Mean Survival Time: untreated control 6.6 days
[6] = Various in vitro assays (general statement); conditions: Tables I, II and III
[7] = tested on: experimental murine tumor models; conditions: compared with methotrexate or 10-deazaminopterin; cited from earlier work
[8] = tested on: human mammary, lung and colon tumor xenografts; conditions: lung and colon tumor xenografts in nude mice; cited from earlier work
[9] = target: dihydrofolate reductase derived from L. casei (Lacticaseibacillus casei, UniProt P00381); test: DHFR inhibition, enzyme derived from L. casei; format: biochemical; conditions: relative to l,L-isomer
Chain of dihydrofolate reductase derived from L. casei (P00381 whole entry): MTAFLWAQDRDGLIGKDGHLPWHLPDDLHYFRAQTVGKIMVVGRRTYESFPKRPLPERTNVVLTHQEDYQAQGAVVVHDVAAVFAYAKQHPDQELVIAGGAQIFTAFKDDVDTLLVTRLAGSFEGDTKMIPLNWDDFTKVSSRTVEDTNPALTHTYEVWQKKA

[10] = Mus musculus, L1210, L1210 cells
[11] = 9 mg/kg, listed as racemic mixture
[12] = 12 mg/kg, listed as racemic mixture
[13] = 18 mg/kg, listed as racemic mixture
[14] = 24 mg/kg, listed as racemic mixture

Nc1nc2c(c(=O)[nH]1)NC(CCc1ccc(C(=O)O)cc1)CN2 (stereo not drawn)
growth-inhibitory activity against Streptococcus faecium (Streptococcus faecium [1]): Activity was greatly enhanced by reduction to the tetrahydro compound

CCC(CC1CNc2nc(N)nc(N)c2N1)c1ccc(C(=O)N[C@@H](CCC(=O)O)C(=O)O)cc1 (mixture of isomers) [5,6,7,8-tetrahydro racemic mixture]
Minimum Inhibitory Concentration50 for growth inhibition, S. faecium (Streptococcus faecium [2]): 2.6 ng/mL

CC(Cc1cnc2nc(N)nc(N)c2n1)c1ccc(C(=O)N[C@@H](CCC(=O)O)C(=O)O)cc1 (single isomer, unassigned) [d, L-10-methyl, 10-methyl-10-deazaminopterin]
inhibition of dihydrofolate reductase derived from L1210, comparison between isomers [3]: not significantly different from one another or MTX
IC50 (L1210 cells; L1210 cells): 0.68 nM
inhibition of growth for L1210 cells, comparison between isomers (L1210 cells): not a significant difference
transport efflux k [4]: 0.258 min⁻¹

CCC(Cc1cnc2nc(N)nc(N)c2n1)c1ccc(C(=O)N[C@@H](CCC(=O)O)C(=O)O)cc1 (single isomer, unassigned) [l, L-10-ethyl, l,L-10-ethyl-10-deazaminopterin]
IC50 (L1210 cells; [10]): 1.52 nM
inhibition of growth for L1210 cells, comparison between isomers (L1210 cells): only one-third as potent as the d,L isomer
transport efflux k [4]: 0.249 min⁻¹
potency against S. faecium, comparison (Streptococcus faecium [2]): slightly more potent than the d,L-isomer

CC(Cc1cnc2nc(N)nc(N)c2n1)c1ccc(C(=O)N[C@@H](CCC(=O)O)C(=O)O)cc1 (single isomer, unassigned) [l, L-10-methyl, 10-methyl-10-deazaminopterin]
inhibition of dihydrofolate reductase derived from L1210, comparison between isomers [3]: not significantly different from one another or MTX
IC50 (L1210 cells; [10]): 1.18 nM
inhibition of growth for L1210 cells, comparison between isomers (L1210 cells): not a significant difference
transport efflux k [4]: 0.267 min⁻¹

CCC(CC1CNc2nc(N)nc(N)c2N1)c1ccc(C(=O)N[C@@H](CCC(=O)O)C(=O)O)cc1 (stereo partly drawn) [5,6,7,8-tetrahydro d, L]
Minimum Inhibitory Concentration50 for growth inhibition, S. faecium (Streptococcus faecium [2]): 2.5 ng/mL
potency against S. faecium, comparison (Streptococcus faecium [2]): slightly more potent than the l,L isomer

CCC(CC1CNc2nc(N)nc(N)c2N1)c1ccc(C(=O)N[C@@H](CCC(=O)O)C(=O)O)cc1 (stereo partly drawn) [5,6,7,8-tetrahydro l, L]
IC50 (Streptococcus faecium [2]): 3.1 ng/mL (≈ 6.57 nM)

CCC(CC1=Nc2c(N)nc(N)nc2NC1)c1ccc(C(=O)N[C@@H](CCC(=O)O)C(=O)O)cc1 (stereo partly drawn) [7,8-dihydro l, L]
IC50 (Streptococcus faecium [2]): 1.1 ng/mL (≈ 2.34 nM)

Nc1nc(N)c2nc(CCc3ccc(C(=O)NC(CCC(=O)O)C(=O)O)cc3)cnc2n1 (stereo not drawn) [10-deazaminopterin]
amelioration of leukemia and other malignancies, including ascitic tumors [5]: can be ameliorated

Nc1nc2ncc(CCc3ccc(C(=O)O)cc3)nc2c(=O)[nH]1 [10-deazapteroic acid]
growth-inhibitory activity against Streptococcus faecium (Streptococcus faecium [1]): potent growth-inhibitory activity

CCC(Cc1cnc2nc(N)nc(N)c2n1)c1ccc(C(=O)N[C@@H](CCC(=O)O)C(=O)O)cc1 (stereo partly drawn) [10-ethyl-10-deazaminopterin]
30-day survivors (L1210 leukemia; [11]): 0/10
Increased Life Span (L1210 leukemia; [11]): +135%
Toxic deaths (L1210 leukemia; [11]): 0/10
Mean Survival Time (L1210 leukemia; [11]): 15.5 ± 0.6 days
30-day survivors (L1210 leukemia; [12]): 0/10
Increased Life Span (L1210 leukemia; [12]): +153%
Toxic deaths (L1210 leukemia; [12]): 0/10
Mean Survival Time (L1210 leukemia; [12]): 16.7 ± 0.7 days
30-day survivors (L1210 leukemia; [13]): 0/10
Increased Life Span (L1210 leukemia; [13]): +193%
Toxic deaths (L1210 leukemia; [13]): 0/10
Mean Survival Time (L1210 leukemia; [13]): 19.3 ± 0.8 days
30-day survivors (L1210 leukemia; [14]): 2/10
Increased Life Span (L1210 leukemia; [14]): > +207%
Toxic deaths (L1210 leukemia; [14]): 2/10
Mean Survival Time (L1210 leukemia; [14]): 20.3 ± 1.9 days
30-day survivors (L1210 leukemia; 32 mg/kg): 0/10
Increased Life Span (L1210 leukemia; 32 mg/kg): +67%
Toxic deaths (L1210 leukemia; 32 mg/kg): 10/10
Mean Survival Time (L1210 leukemia; 32 mg/kg): 16.0 ± 1.1 days
inhibitory activity in the various in vitro assays, comparison [6]: intermediate between the values for the resolved d,L and l,L diasteromers
effectiveness in experimental murine tumor models [7]: considerably more effective than methotrexate or 10-deazaminopterin
regression of human tumor xenografts [8]: frank regressions

CCC(Cc1cnc2nc(N)nc(N)c2n1)c1ccc(C(=O)N[C@@H](CCC(=O)O)C(=O)O)cc1 (stereo partly drawn) [d, L-10-ethyl, d,L-10-ethyl-10-deazaminopterin]
inhibition of dihydrofolate reductase derived from L1210, comparison between isomers ([3]; listed as d,L isomer of 10-ethyl-10-deazaminopterin): significantly more effective; also recorded: three-fold difference between l,L and d,L isomers
IC50 (L1210 cells; [10]): 0.43 nM
inhibition of growth for L1210 cells, comparison between isomers (L1210 cells): significantly more effective
transport efflux k [4]: 0.253 min⁻¹
potency against the L. casei enzyme, d,L-isomer over l,L-isomer [9]: approximately three-fold greater potency
30-day survivors (L1210 leukemia; 9 mg/kg, listed as d, L): 0/6
Increased Life Span (L1210 leukemia; 9 mg/kg, listed as d, L): +177%
Toxic deaths (L1210 leukemia; 9 mg/kg, listed as d, L): 0/6
Mean Survival Time (L1210 leukemia; 9 mg/kg, listed as d, L): 18.3 ± 1.7 days
30-day survivors (L1210 leukemia; 12 mg/kg, listed as d, L): 0/9
Increased Life Span (L1210 leukemia; 12 mg/kg, listed as d, L): +199%
Toxic deaths (L1210 leukemia; 12 mg/kg, listed as d, L): 3/9
Mean Survival Time (L1210 leukemia; 12 mg/kg, listed as d, L): 19.8 ± 2.3 days
30-day survivors (L1210 leukemia; 18 mg/kg, listed as d, L): 1/9
Increased Life Span (L1210 leukemia; 18 mg/kg, listed as d, L): > +165%
Toxic deaths (L1210 leukemia; 18 mg/kg, listed as d, L): 5/9
Mean Survival Time (L1210 leukemia; 18 mg/kg, listed as d, L): 17.5 ± 1.5 days
30-day survivors (L1210 leukemia; 24 mg/kg, listed as d, L): 0/3
Increased Life Span (L1210 leukemia; 24 mg/kg, listed as d, L): +55%
Toxic deaths (L1210 leukemia; 24 mg/kg, listed as d, L): 3/3
Mean Survival Time (L1210 leukemia; 24 mg/kg, listed as d, L): 10.0 ± 0 days

CN(Cc1cnc2nc(N)nc(N)c2n1)c1ccc(C(=O)N[C@@H](CCC(=O)O)C(=O)O)cc1 [methotrexate, reference compound]
IC50 (L1210 cells; L1210 cells): 2.48 nM
transport efflux k [4]: 0.213 min⁻¹
30-day survivors (L1210 leukemia; 9 mg/kg): 0/10
Increased Life Span (L1210 leukemia; 9 mg/kg): +137%
Toxic deaths (L1210 leukemia; 9 mg/kg): 0/10
Mean Survival Time (L1210 leukemia; 9 mg/kg): 15.7 ± 0.4 days
30-day survivors (L1210 leukemia; 12 mg/kg): 0/10
Toxic deaths (L1210 leukemia; 12 mg/kg): 1/10
Mean Survival Time (L1210 leukemia; 12 mg/kg): 16.3 ± 0.7 days
30-day survivors (L1210 leukemia; 18 mg/kg): 0/10
Increased Life Span (L1210 leukemia; 18 mg/kg): +119%
Toxic deaths (L1210 leukemia; 18 mg/kg): 6/10
Mean Survival Time (L1210 leukemia; 18 mg/kg): 14.5 ± 1.6 days
30-day survivors (L1210 leukemia; 24 mg/kg): 0/10
Increased Life Span (L1210 leukemia; 24 mg/kg): +46%
Toxic deaths (L1210 leukemia; 24 mg/kg): 10/10
Mean Survival Time (L1210 leukemia; 24 mg/kg): 9.6 ± 1.1 days
